According to paper PMC11938010, “Positive Charge in an Antimalarial Compound Unlocks Broad-Spectrum Antibacterial Activity” (JACS Au, 2025):
In brackets after ≈: the same amount, converted by molar mass. Where two headings read alike, the source gives them in different places.

Assays:
[1] = test system: Plasmodium falciparum NF54; test: P. falciparum in vitro drug sensitivity assay on asexual blood stage parasites ([3H]-hypoxanthine incorporation); type: cell-based; settings: for IC50: read-out: PfNF54 IC50
Escherichia coli ∆tolC = test: microbe, parasite or virus in culture; type: cell-based; settings: for MIC / inhibition at 50 µM: Escherichia coli; for inhibition at 50 µM: read-out: Ec∆tolC inh. at 50 µM (%)
[2] = test system: Streptococcus pneumoniae (DSM20566); test: In vitro antibacterial activity (MIC), S. pneumoniae; type: cell-based; settings: Streptococcus pneumoniae, DSM20566, read-out: Sp MIC95
[3] = test system: Staphylococcus aureus ssp. Aureus; test: In vitro antibacterial activity (MIC), S. aureus; type: cell-based; settings: Staphylococcus aureus, read-out: Sa MIC95
in vitro = settings: human
[4] = test system: Mycobacterium tuberculosis (Mtb) strain H37Rv; test: microbe, parasite or virus in culture; type: cell-based; settings: 168 h, 7 days, footnote b: not active at maximum solubility, read-out: MtbH37Rv MIC90
E. coli K12 = test: In vitro antibacterial activity (growth inhibition, OD600), E. coli wild-type; type: cell-based; settings: Escherichia coli
Acinetobacter baumannii = test: In vitro antibacterial activity (growth inhibition, OD600), A. baumannii; type: cell-based
[5] = test system: Pseudomonas aeruginosa PA14; test: In vitro antibacterial activity (growth inhibition, OD600), P. aeruginosa; type: cell-based
[6] = Plasmodium falciparum, NF54, Table 1 and main text
[7] = Table S2, with standard deviation
[8] = K12, 50 µM, Table S1, with standard deviation, read-out: EcK12 inh. at 50 µM (%)
[9] = K12, 50 μM compound, Table 1 and main text, read-out: EcK12 inh. at 50 μM
[10] = 50 μM compound, Table 1 and main text, read-out: Ab inh. at 50 μM
[11] = 50 µM, Table S1, with standard deviation, read-out: Ab inh. at 50 µM (%)
[12] = PA14, 50 μM compound, Table 1 and main text, read-out: PA14 inh. at 50 μM
[13] = K12, read-out: EcK12 inh. at 50 μM, 50 μM compound, Table 1 and main text
[14] = PA14, 50 µM, Table S1, with standard deviation, read-out: PA14 inh. at 50 µM (%)

| Compound | IC50 [1, 6] [nM] | MIC (Escherichia coli ∆tolC; read-out: EcΔtolC MIC95) [µM] | inhibition at 50 µM (Escherichia coli ∆tolC) [%] | MIC ([2]; Table 1 and main text) [µM] | MIC [2, 7] [µM] | MIC ([3]; Table 1 and main text) [µM] | MIC [3, 7] [µM] | CC50 (in vitro; HepG2 CC50, 48 h, MTT) [µM] | MIC90 [4] [µM] | MIC (Escherichia coli ∆tolC; read-out: Ec∆tolC MIC95 (µM)) [µM] | inhibition at 50 µM [5, 12] [%] | further results |
| --- | --- | --- | --- | --- | --- | --- | --- | --- | --- | --- | --- | --- |
| Cc1ccc(NC(=O)c2cc(-c3cc(Cl)ccc3O)[nH]n2)cc1 [Compound 1d] | > 2000 | > 50 | < 10 | > 50 | > 50 | > 50 | > 50 | > 50 | – | – | – | IC50 ([1]; Table 1 and main text): 2400 nM |
| O=C(c1cc(-c2cc(Cl)ccc2O)[nH]n1)N1CCOCC1 [Compound 1e] | > 5000 | > 50 | 23 ± 3 | > 50 | > 50 | > 50 | > 50 | > 50 | > 16 | – | – | PfNF54 IC50 ([1]; Table 1 and main text): inactive |
| CC(C)(C)OC(=O)N1CCN(Cc2cccc(NC(=O)c3cc(-c4cc(Cl)ccc4O)[nH]n3)c2)CC1 [Compound 3B] | 1000 | > 50 | – | > 50 | > 50 | > 50 | > 50 | 25 | – | – | – | inhibition at 50 µM (E. coli K12; [8]): < 10% |
| O=C(Nc1ccc(CN2CCNCC2)cc1)c1cc(-c2cc(Cl)ccc2O)[nH]n1 [Compound 4A] | 270 | 40 (≈ 16.5 µg/mL) | – | 40 (≈ 16.5 µg/mL) | 40 ± 7 (≈ 16.5 µg/mL) | > 50 | > 50 | 13 | 64 (≈ 26.4 µg/mL) | 40 ± 8 (≈ 16.5 µg/mL) | 62 | inhibition at 50 µM (E. coli K12; [9]): 34%; inhibition at 50 µM (Acinetobacter baumannii; [10]): 24%; inhibition at 50 µM (Acinetobacter baumannii; [11]): 24.2 ± 7.7% |
| CC(C)(C)OC(=O)N1CCN(Cc2ccc(NC(=O)c3cc(-c4cc(Cl)ccc4O)[nH]n3)cc2)CC1 [Compound 4B] | 200 | > 50 | – | > 50 | > 50 | > 50 | > 50 | 7 | – | – | – | inhibition at 50 µM (E. coli K12; [8]): 17 ± 13%; CC50 (in vitro; HepG2 CC50 (µM), Table S2, with standard deviation): 7.4 ± 0.7 µM |
| CC(C)(C)OC(=O)N1CCN(c2cccc(NC(=O)c3cc(-c4cc(Cl)ccc4O)[nH]n3)c2)CC1 [Compound 5B] | 900 | > 50 | 19 ± 14 | > 50 | > 50 | > 50 | > 50 | > 50 | – | – | – | inhibition at 50 µM (E. coli K12; [8]): < 10% |
| N=C(N)N1CCN(c2cccc(NC(=O)c3cc(-c4cc(Cl)ccc4O)[nH]n3)c2)CC1 [Compound 5G] | 930 | 11 (≈ 4.84 µg/mL) | – | 48 (≈ 21.1 µg/mL) | 48 ± 1 (≈ 21.1 µg/mL) | 23.1 (≈ 10.2 µg/mL) | 23.1 ± 0.5 (≈ 10.2 µg/mL) | > 50 | 64 (≈ 28.2 µg/mL) | 11 ± 2 (≈ 4.84 µg/mL) | 31 | inhibition at 50 µM (E. coli K12; [9]): 32%; inhibition at 50 µM (Acinetobacter baumannii; [10]): < 10% |
| CC(C)(C)OC(=O)N1CCN(c2ccc(NC(=O)c3cc(-c4cc(Cl)ccc4O)[nH]n3)cc2)CC1 [Compound 6B] | 1610 | > 50 | < 10 | > 50 | > 50 | > 50 | > 50 | > 50 | – | – | – | – |
| N=C(N)N1CCN(c2ccc(NC(=O)c3cc(-c4cc(Cl)ccc4O)[nH]n3)cc2)CC1 [Compound 6G] | 440 | 9 (≈ 3.96 µg/mL) | – | 25 (≈ 11 µg/mL) | 25 ± 2 (≈ 11 µg/mL) | 26 (≈ 11.4 µg/mL) | 26 ± 2 (≈ 11.4 µg/mL) | > 50 | 64 (≈ 28.2 µg/mL) | 9 ± 3 (≈ 3.96 µg/mL) | 55 | inhibition at 50 µM (E. coli K12; [13]): ≥ 45%; inhibition at 50 µM (Acinetobacter baumannii; [10]): 32% |
| CC(C)(C)OC(=O)NCc1cccc(NC(=O)c2cc(-c3cc(Cl)ccc3O)[nH]n2)c1 [Compound 7B] | 1100 | > 50 | < 10 | > 50 | > 50 | > 50 | > 50 | > 50 | – | – | – | inhibition at 50 µM (E. coli K12; [8]): < 10% |
| O=C(Nc1cccc(CNC2=NCCN2)c1)c1cc(-c2cc(Cl)ccc2O)[nH]n1 [Compound 7C] | 390 | 13 (≈ 5.34 µg/mL) | – | 48.2 (≈ 19.8 µg/mL) | 48.2 ± 0.8 (≈ 19.8 µg/mL) | 22.3 (≈ 9.16 µg/mL) | 22.3 ± 0.6 (≈ 9.16 µg/mL) | > 50 | 32 (≈ 13.1 µg/mL) | 13 ± 3 (≈ 5.34 µg/mL) | 41 | inhibition at 50 µM (E. coli K12; [9]): 29%; inhibition at 50 µM (E. coli K12; [8]): 29.4 ± 0.6%; inhibition at 50 µM (Acinetobacter baumannii; [10]): 33% |
| CC(C)(C)OC(=O)N1CCN=C1NCc1cccc(NC(=O)c2cc(-c3cc(Cl)ccc3O)[nH]n2)c1 [Compound 7D] | 360 | 14 (≈ 7.15 µg/mL) | – | 31 (≈ 15.8 µg/mL) | 31 ± 11 (≈ 15.8 µg/mL) | 24 (≈ 12.3 µg/mL) | 24 (≈ 12.3 µg/mL) | 19 | 64 (≈ 32.7 µg/mL) | 14 ± 4 (≈ 7.15 µg/mL) | ≥ 45 | inhibition at 50 µM (E. coli K12; [13]): ≥ 45%; inhibition at 50 µM [5, 14]: 54.8 ± 0.8% |
| N=C(N)NCc1cccc(NC(=O)c2cc(-c3cc(Cl)ccc3O)[nH]n2)c1 [Compound 7G] | 210 | 13 (≈ 5 µg/mL) | – | 49 (≈ 18.9 µg/mL) | 49 (≈ 18.9 µg/mL) | 22 (≈ 8.47 µg/mL) | 22 ± 2 (≈ 8.47 µg/mL) | > 50 | 64 (≈ 24.6 µg/mL) | 13 ± 3 (≈ 5 µg/mL) | 56 | inhibition at 50 µM (E. coli K12; [13]): ≥ 45%; inhibition at 50 µM (Acinetobacter baumannii; [10]): 24% |
| CC(C)(C)OC(=O)N1CCN=C1NCc1ccc(NC(=O)c2cc(-c3cc(Cl)ccc3O)[nH]n2)cc1 [Compound 8D] | – | > 50 | 18.5 ± 0.8 | > 50 | > 50 | > 50 | > 50 | > 50 | > 64 | – | – | – |
| CC(C)(C)OC(=O)NCc1cc(NC(=O)c2cc(-c3cc(Cl)ccc3O)[nH]n2)cc(C(F)(F)F)c1 [Compound 9B, tert-Butyl (3-(5-(5-chloro-2-hydroxyphenyl)-1H-pyrazole-3-carboxamido)-5-(trifluoromethyl)benzyl)carbamate] | 203 | > 50 | 48 ± 8 | 30 (≈ 15.3 µg/mL) | 30 ± 5 (≈ 15.3 µg/mL) | > 50 | > 50 | 5 | > 64 | – | – | – |
| CC(C)(C)OC(=O)N1CCN=C1NCc1cc(NC(=O)c2cc(-c3cc(Cl)ccc3O)[nH]n2)cc(C(F)(F)F)c1 [Compound 9D] | 150 | 24 (≈ 13.9 µg/mL) | – | 21 (≈ 12.2 µg/mL) | 21 ± 9 (≈ 12.2 µg/mL) | 12 (≈ 6.95 µg/mL) | 12 ± 3 (≈ 6.95 µg/mL) | 14 | 16 (≈ 9.26 µg/mL) | 24 (≈ 13.9 µg/mL) | 21 | EcΔtolC MIC95 (Escherichia coli ∆tolC; Table 1 and main text): 24.0 µM; inhibition at 50 µM (Acinetobacter baumannii; [11]): 81.6 ± 0.6% |
| CC(C)(C)OC(=O)NCc1ccc(NC(=O)c2cc(-c3cc(Cl)ccc3O)[nH]n2)cc1C(F)(F)F [Compound 10B, tert-Butyl (4-(5-(5-chloro-2-hydroxyphenyl)-1H-pyrazole-3-carboxamido)-2-(trifluoromethyl)benzyl)carbamate] | 190 | > 50 | < 10 | > 50 | > 50 | > 50 | > 50 | > 50 | – | – | – | inhibition at 50 µM (E. coli K12; [8]): < 10%; inhibition at 50 µM (Acinetobacter baumannii; [11]): < 10% |
| O=C(Nc1ccc(C(F)(F)F)c(N2CCNCC2)c1)c1cc(-c2cc(Cl)ccc2O)[nH]n1 [Compound 13A, 5-(5-Chloro-2-hydroxyphenyl)-N-(3-(piperazin-1-yl)-4-(trifluoromethyl)phenyl)-1H-pyrazole-3-carboxamide] | 160 | > 50 | 46 ± 5 | 29 (≈ 13.5 µg/mL) | 29 ± 2 (≈ 13.5 µg/mL) | > 50 | > 50 | 8 | 32 (≈ 14.9 µg/mL) | – | – | inhibition at 50 µM (Acinetobacter baumannii; [11]): < 10%; inhibition at 50 µM [5, 14]: < 10% |
| CC(C)(C)OC(=O)N1CCN(c2cc(NC(=O)c3cc(-c4cc(Cl)ccc4O)[nH]n3)ccc2C(F)(F)F)CC1 [Compound 13B, tert-Butyl 4-(5-(5-(5-chloro-2-hydroxyphenyl)-1H-pyrazole-3-carboxamido)-2-(trifluoromethyl)phenyl)piperazine-1-carboxylate] | 342 | > 50 | < 10 | > 50 | – | > 50 | – | 2.8 | – | – | – | – |
| O=C(c1cc(-c2cc(Cl)ccc2O)[nH]n1)N1CCNCC1 [Compound 14A, (5-(5-Chloro-2-hydroxyphenyl)-1H-pyrazol-3-yl)(piperazin-1-yl)methanone] | 3300 | > 50 | 18 ± 4 | > 50 | > 50 | > 50 | > 50 | > 50 | > 16 | – | – | PfNF54 IC50 ([1]; Table 1 and main text): inactive |
| N=C(N)N1CCN(C(=O)c2cc(-c3cc(Cl)ccc3O)[nH]n2)CC1 [Compound 14G] | > 5000 | > 50 | 18 ± 9 | > 50 | > 50 | > 50 | > 50 | > 50 | > 64 | – | – | PfNF54 IC50 ([1]; Table 1 and main text): inactive |
